Reference: ChEMBL document CHEMBL2086374, “C-Glucosylated malonitrile as a key intermediate towards carbohydrate-based glycogen phosphorylase inhibitors” (Bioorg Med Chem, 2012)

How the values were obtained:
[1] = molecular target: T1, Glycogen phosphorylase, muscle form (Oryctolagus cuniculus) (UniProt P00489); assay: Inhibition of rabbit skeletal muscle glycogen phosphorylase-B using glucose-1-phosphate substrate assessed as […] in phosphate release at 300 uM
T1 sequence (whole entry): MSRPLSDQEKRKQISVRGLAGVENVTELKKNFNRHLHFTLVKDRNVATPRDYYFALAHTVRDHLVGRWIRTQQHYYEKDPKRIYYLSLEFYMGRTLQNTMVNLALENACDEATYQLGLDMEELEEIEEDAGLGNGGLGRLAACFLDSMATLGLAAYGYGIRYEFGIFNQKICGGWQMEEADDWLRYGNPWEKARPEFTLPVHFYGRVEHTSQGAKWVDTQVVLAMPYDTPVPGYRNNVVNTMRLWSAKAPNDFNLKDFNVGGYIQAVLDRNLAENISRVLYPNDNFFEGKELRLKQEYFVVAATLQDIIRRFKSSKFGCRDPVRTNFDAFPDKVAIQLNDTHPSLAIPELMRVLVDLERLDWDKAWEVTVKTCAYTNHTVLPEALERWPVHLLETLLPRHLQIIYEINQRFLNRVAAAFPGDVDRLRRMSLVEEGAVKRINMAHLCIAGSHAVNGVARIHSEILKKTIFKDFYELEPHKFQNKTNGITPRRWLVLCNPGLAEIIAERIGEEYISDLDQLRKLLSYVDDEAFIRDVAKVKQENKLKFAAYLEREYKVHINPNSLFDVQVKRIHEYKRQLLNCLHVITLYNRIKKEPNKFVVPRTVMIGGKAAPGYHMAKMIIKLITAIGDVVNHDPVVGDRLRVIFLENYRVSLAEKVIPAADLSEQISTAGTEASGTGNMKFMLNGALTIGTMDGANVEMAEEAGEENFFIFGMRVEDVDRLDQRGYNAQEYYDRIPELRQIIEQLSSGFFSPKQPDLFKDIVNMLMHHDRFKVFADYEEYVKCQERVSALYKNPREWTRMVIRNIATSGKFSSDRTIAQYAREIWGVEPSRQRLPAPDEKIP

[2] = molecular target: T1, Glycogen phosphorylase, muscle form (Oryctolagus cuniculus); assay: Inhibition of rabbit skeletal muscle glycogen phosphorylase-B using glucose-1-phosphate substrate assessed as […] in phosphate release at 1000 uM
[3] = Solubility of compound in water in presence of 20% DMSO; type: physicochemical; conditions: buffer
[4] = molecular target: T1, Glycogen phosphorylase, muscle form (Oryctolagus cuniculus); assay: Inhibition of rabbit skeletal muscle glycogen phosphorylase-B using glucose-1-phosphate substrate assessed as […] in phosphate release at 250 uM

inhibition [2] [%] | SMILES | also measured
 | O=C(NCC(CNC(=O)c1ccc2ccccc2c1)[C@@H]1O[C@H](CO)[C@@H](O)[C@H](O)[C@H]1O)c1ccc2ccccc2c1 | inhibition [1]: 44%
21 | O=C(NCC(CNC(=O)c1ccccc1)[C@@H]1O[C@H](CO)[C@@H](O)[C@H](O)[C@H]1O)c1ccccc1 | 
8.5 | O=C1NCC([C@@H]2O[C@H](CO)[C@@H](O)[C@H](O)[C@H]2O)CN1 | 
39 | Cc1ccc(-c2noc(C(c3nc(-c4ccc(C)cc4)no3)[C@@H]3O[C@H](CO)[C@@H](O)[C@H](O)[C@H]3O)n2)cc1 | 
 | OC[C@H]1O[C@@H](C(c2nc(-c3ccc4ccccc4c3)no2)c2nc(-c3ccc4ccccc4c3)no2)[C@H](O)[C@@H](O)[C@@H]1O | solubility [3]: Insoluble; inhibition [4]: 38%
